# Source: publication PMC8752738, “A propolis-derived small molecule ameliorates metabolic syndrome in obese mice by targeting the CREB/CRTC2 transcriptional complex” (Nature Communications, 2022)
# Values joined by “and” are separate entries in the source; they are usually repeats but may differ in a detail not shown here. Equal values may be shown once.
# Tests used:
# CREB-CRTC2 interaction = biological target: T1, CREB-CRTC2 interaction (Homo sapiens, UniProt P16220); experiment: CREB–CRTC2 mammalian two-hybrid assay (GAL4-Luc reporter); format: cell-based; conditions: for Relative Gal4-LUC activity, single replicates: Figure 1f, CREB-CRTC2 two-hybrid assay, DMSO control about 100; for reporter activity of CREB–CRTC2 two-hybrid assay: HEK293T, isolated compound 25 μM
# T1 construct: expressed in transfected cells; host or cells: HEK293T
# T1 sequence (P16220 whole entry, the tested form may be a part): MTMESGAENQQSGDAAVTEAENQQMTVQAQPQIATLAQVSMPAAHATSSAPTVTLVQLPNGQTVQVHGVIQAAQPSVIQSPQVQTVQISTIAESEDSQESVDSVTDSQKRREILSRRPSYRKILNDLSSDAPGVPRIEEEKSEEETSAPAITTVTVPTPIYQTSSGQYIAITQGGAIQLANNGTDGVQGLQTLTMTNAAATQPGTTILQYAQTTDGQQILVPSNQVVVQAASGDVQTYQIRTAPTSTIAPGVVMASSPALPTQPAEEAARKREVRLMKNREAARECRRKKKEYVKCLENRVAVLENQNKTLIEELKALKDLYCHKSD
# tissue mRNA levels = experiment: Quantitative PCR of tissue gene expression in treated mice; format: in vivo, mouse; conditions: for Mean Diff. (Veh. vs. treated; head of the quantity not shown, section just before Figure 7h): Met 200mg/kg or APC-20; for Lxra mRNA level: Figure 7g right, Met 200mg/kg, single animals
# Experimental: Total RNA from cells and tissues was extracted by Trizol (Invitrogen) and reverse-transcribed into cDNA using the prime script RT reagent kit with gDNA eraser (Takara). The mRNA levels were determined using the SYBR-green PCR kit (Takara) with ABIPRISM 7900HT Sequence detector (ABI) according to the manufacturer’s protocol. The quantitative qPCR primers used in this work are listed in Supplementary Table 1. Ribosomal L32 mRNA levels were used as an internal control.
# [1] = Cholesterol, TG, NEFA and glycerol in serum and liver; format: in vivo, mouse; design: liver NEFA, Mean 2 (group mean) / Plasma VLDL cholesterol in db/db mice (VLDL-C) / Plasma VLDL cholesterol in db/db mice, group mean / TC in liver_CT2KO (total cholesterol in the liver of CRTC2-KO) / TC in liver_WT (total cholesterol in the liver) / TC in liver_WT, mean / TC in liver_WT, Mean Diff. VEH vs. drug / TC in liver_CRTC2KO, mean / TC in liver_CRTC2KO, Mean Diff. VEH vs. drug: unit not given here; conditions: liver, individual animals, Supp.fig.5d
# Experimental: Serum total cholesterol (TC), LDL cholesterol (LDL-C), and HDL cholesterol (HDL-C) levels were detected using commercial kits (Beihua, China), and serum VLDL protein was determined by ELISA (Jiancheng, China).
# The plasma TG and NEFA levels were determined using corresponding kits from Beihua (China) and WAKO (Japan), respectively. The TG levels of liver and WAT were tested by TG kit (Applygene, China). The NEFA in the liver and WAT were extracted by chloroform–methanol and then subjected to NEFA assay (WAKO).
SMILES,"Relative Gal4-LUC activity, single replicates (CREB-CRTC2 interaction)",other results
"O=C(O)/C=C/c1ccc(O)c(O)c1 [P9, (E)-caffeic acid]",57.5791 and 77.7251 and 73.1602,–
"COc1ccc(-c2oc3cc(O)c(OC)c(O)c3c(=O)c2O)cc1 [P16, betuletol]",48.4823 and 30.8552 and 26.2372,–
"O=c1c(O)c(-c2ccc(O)c(O)c2)oc2cc(O)cc(O)c12 [P14, quercetin]",130.988 and 153.776 and 136.769,–
"COc1ccc(-c2oc3cc(O)cc(O)c3c(=O)c2O)cc1 [P13, kaempferide]",126.299 and 72.1957 and 55.4453,–
"COc1ccc(-c2oc3cc(O)c(O)c(O)c3c(=O)c2OC)cc1 [P17, 5,6,7,-trihydroxy-3,4′-dimethoxyflavone]",79.2706 and 131.512 and 110.674,–
"CC(C)=CCc1cc(/C=C/C(=O)O)cc(C/C=C(\C)CO)c1O [P7, capillartemisin A]",126.493 and 128.204 and 133.801,–
"COc1c(O)cc2oc(-c3ccc(O)cc3)c(O)c(=O)c2c1O [P15, 6-methoxykaempferol]",91.5539 and 105.994 and 143.876,–
"COc1ccc(C2Oc3cc(O)cc(O)c3C(=O)C2O)cc1 (stereo not shown) [P21, dihydrokaempferide]",44.892 and 54.8815 and 50.4357,–
"O=C(O)/C=C/c1ccc(O)cc1 [P1, (E)-p-coumaric acid]",70.496 and 71.1658 and 69.3726,reporter activity of CREB–CRTC2 two-hybrid assay (CREB-CRTC2 interaction): significantly inhibited
"O=c1c(O)c(-c2ccc(O)cc2)oc2cc(O)cc(O)c12 [P12, kaempferol]",73.7017 and 114.823 and 172.832,–
"CC1(C)C=Cc2cc(C=CC(=O)O)ccc2O1 [P11, 2,2-dimethylchromene-6-propenoic acid]",49.0084 and 29.9945 and 36.8575,–
"CC(C)=CCc1cc(/C=C/C(=O)O)ccc1O [P2, drupanin]",61.0304 and 51.9945 and 58.5603,reporter activity of CREB–CRTC2 two-hybrid assay (CREB-CRTC2 interaction): significantly inhibited
CN(C)C(=N)NC(=N)N [Met],–,"Mean Diff. (Veh. vs. treated; head of the quantity not shown, section just before Figure 7h) (tissue mRNA levels; CRTC2KO mice): -0.1815; Lxra mRNA level (tissue mRNA levels; Crtc2KO mice): 0.8758 and 0.8882 and 0.7033 and 0.8771 and 1.013; Lxra mRNA level (tissue mRNA levels; WT mice): 1.062 and 1.197 and 0.4513 and 1.258 and 0.814; Mean Diff. (Veh. vs. treated; head of the quantity not shown, section just before Figure 7h) (tissue mRNA levels; WT mice): 0.07313; TC in liver_CT2KO (total cholesterol in the liver of CRTC2-KO) ([1]; CRTC2-KO mice): 69.3199 and 58.5752 and 53.7207 and 41.7006 and 49.9498 and 60.0658; TC in liver_WT (total cholesterol in the liver) ([1]; WT mice): 51.5785 and 54.6034 and 57.0386 and 53.1363 and 64.5936 and 53.9126"
"CCOC(=O)/C=C/c1ccc(O)c(O)c1 [P10, (E)-caffeic acid ethyl ester]",123.291 and 121.37 and 118.215,–
"O=C(/C=C/c1ccc(O)cc1)OCc1ccccc1 [P5, (E)-p-coumaric acid benzyl ester]",49.3178 and 78.5049 and 35.7022,reporter activity of CREB–CRTC2 two-hybrid assay (CREB-CRTC2 interaction): significantly inhibited
"O=C1c2c(O)cc(O)cc2O[C@H](c2ccc(O)cc2)[C@H]1O [P20, aromadendrin]",126.871 and 59.3858 and 61.7309,–
"O=C1C[C@@H](c2ccccc2)Oc2cc(O)cc(O)c21 [P18, pinocembrin]",63.0454 and 51.143 and 49.1354,–
